Laboratory results published in patent publication US10155756B2, “Pyrazolo[1,5-A]pyridine compounds and use thereof” (GUANGZHOU INSTITUTES OF BIOMEDICINE AND HEALTH, CHINESE …, priority 2014, dated 2018).
Converted amounts (≈) assume the structure as drawn.

test system: self-luminescent tuberculosis; assay: microbe, parasite or virus in culture; assay type: cell-based; settings: Mycobacterium tuberculosis, 72 h; read-out: MIClux

Q: Which MIC does the source give for `CCc1nn2ccc(Cl)cc2c1C(=O)Nc1ccc(N2CCC(c3ccc(OC(F)(F)F)cc3)CC2)cc1` [TJ064819, 5-chloro-2-ethyl-N-(4-(4-(4-(trifluoromethoxy)phenyl)piperidine-1-yl)phenyl) pyrazolo [1,5-a] pyridine-3-carboxamide] here?
A: > 10 µg/mL

Q: For `Cc1nn2ccc(C(C)(C)C)cc2c1C(=O)NCc1ccc(N2CCC(c3ccc(OC(F)(F)F)cc3)CC2)cc1` [TJ830075, 5-tert-Butyl-2-methyl-N-(4-(4-(4-(trifluoromethoxy)phenyl)piperidine-1-substituted)benzyl) pyrazolo [1,5-a] pyridine-3-carboxamide], which MIC is on record?
A: > 10 µg/mL

Q: Which MIC does the source give for `Cc1ccn2nc(C)c(C(=O)NCc3ccc(F)cc3)c2c1` [TJ4570006, N-(4-fluorobenzyl)-2,5-dimethylpyrazolo [1,5-a] pyridine-3-carboxamide] here?
A: 1 to 10 µg/mL (≈ 3.36 to 33.6 µM)

Q: How did the MIC turn out when `COc1ccn2nc(C)c(C(=O)NCc3ccc(N4CCC(c5ccc(OC(F)(F)F)cc5)CC4)cc3)c2c1` [TJ830047, 5-methoxy-2-methyl-N-(4-(4-(4-(trifluoromethoxy)phenyl)piperidine-1-yl)benzyl) pyrazolo [1,5-a] pyridine-3-carboxamide] was run?
A: < 1 µg/mL

Q: For `CCc1nn2ccc(Cl)cc2c1C(=O)NCc1ccc(F)cc1` [TJ4570004, 5-chloro-2-ethyl-N-(4-fluorobenzyl) pyrazolo [1,5-a] pyridine-3-carboxamide], which MIC is on record?
A: > 10 µg/mL

Q: Which MIC does the source give for `Cc1nn2c(C)cccc2c1C(=O)NCc1ccc(N2CCC(c3ccc(OC(F)(F)F)cc3)CC2)cc1` [TJ064851, 2,7-dimethyl-N-(4-(4-(4-(trifluoromethoxy)phenyl)piperidine-1-yl)benzyl) pyrazolo[1,5-a] pyridine-3-carboxamide] here?
A: 1 to 10 µg/mL (≈ 1.91 to 19.1 µM)

Q: How did the MIC turn out when `CCc1nn2ccc(Cl)cc2c1C(=O)NCc1cn(-c2ccc(OC(F)(F)F)cc2)nn1` [TJ064983] was run?
A: > 10 µg/mL

Q: Which MIC does the source give for `CCc1nn2ccc(Cl)cc2c1C(=O)NCc1ccc(-c2ccc(OC(F)(F)F)cc2)nc1` [TJ830028, 5-chloro-2-ethyl-N-((6-(4-(trifluoromethoxy)phenyl)pyridine-3-yl)methyl) pyrazolo [1,5-a] pyridine-3-carboxamide] here?
A: < 1 µg/mL

Q: How did the MIC turn out when `CCc1nn2ccc(OC)cc2c1C(=O)NCc1ccc(N2CCC(c3ccc(OC(F)(F)F)cc3)CC2)cc1` [TJ064889, 5-methoxy-2-ethyl-N-(4-(4-(4-(trifluoromethoxy)phenyl)piperidine-1-substituted)benzyl) pyrazolo[1,5-a] pyridine-3-carboxamide] was run?
A: < 1 µg/mL

Q: For `Cc1ccn2nc(C)c(C(=O)NCc3ccc(C(F)(F)F)cc3)c2c1` [TJ830072], which MIC is on record?
A: < 1 µg/mL

Q: Which MIC does the source give for `Cc1ccn2nc(C)c(C(=O)NCc3ccc(-c4ccc(OC(F)(F)F)cc4)cc3)c2c1` [TJ830151, 2,5-dimethyl-N-((4′-(trifluoromethoxy)-[1,1′-biphenyl]-4-yl)methyl) pyrazolo [1,5-a] pyridine-3-carboxamide] here?
A: < 1 µg/mL

Q: Which MIC does the source give for `O=C(NCc1ccc(N2CCC(c3ccc(OC(F)(F)F)cc3)CC2)cc1)c1c(-c2ccccc2)nn2ccc(Cl)cc12` [TJ170386, 5-chloro-2-phenyl-N-(4-(4-(4-(trifluoromethoxy)phenyl)piperidine-1-yl)benzyl) pyrazolo [1,5-a] pyridine-3-carboxamide] here?
A: > 10 µg/mL

Q: `Cc1ccc2c(C(=O)NCc3ccc(N4CCC(c5ccc(OC(F)(F)F)cc5)CC4)cc3)c(C)nn2c1` [TJ064854, 2,6-dimethyl-N-(4-(4-(4-(trifluoromethoxy)phenyl)piperidine-1-yl)benzyl) pyrazolo[1,5-a] pyridine-3-carboxamide] was tested. Which MIC did it give?
A: < 1 µg/mL

Q: `Cc1ccn2nc(C)c(C(=O)NCc3ccc(N4CCN(c5ccc(F)cc5)CC4)cc3)c2c1` [TJ830152, N-(4-(4-(4-fluorophenyl)piperazine-1-yl)benzyl)-2,5-dimethyl-pyrazolo [1,5-a] pyridine-3-carboxamide] was tested. Which MIC did it give?
A: < 1 µg/mL

Q: `COc1ccc(C2CCN(c3ccc(CNC(=O)c4c(C)nn5ccc(C)cc45)cc3)CC2)cc1` [TJ830140, N-(4-(4-(4-methoxyphenyl)piperidine-1-yl)benzyl)-2,5-dimethyl-pyrazolo [1,5-a] pyridine-3-carboxamide] was tested. Which MIC did it give?
A: < 1 µg/mL

Q: With `CCc1nn2ccc(C)cc2c1C(=O)NCc1ccc(N2CCC(c3ccc(OC(F)(F)F)cc3)CC2)cc1` [TJ830102, 5-methyl-2-ethyl-N-(4-(4-(4-(trifluoromethoxy)phenyl)piperidine-1-substituted)benzyl) pyrazolo [1,5-a] pyridine-3-carboxamide] as the compound, how does the MIC read?
A: < 1 µg/mL

Q: With `Cc1ccn2nc(C)c(C(=O)NCc3ccc(N4CCC(Oc5ccc(OC(F)(F)F)cc5)CC4)cc3)c2c1` [TJ830161, 2,5-dimethyl-N-(4-(4-(4-(trifluoromethoxy)phenoxy)piperidine-1-yl)benzyl) pyrazolo [1,5-a] pyridine-3-carboxamide] as the compound, how does the MIC read?
A: < 1 µg/mL

Q: Which MIC does the source give for `CCc1nn2ccc(Cl)cc2c1C(=O)N(C)Cc1ccc(N2CCC(c3ccc(OC(F)(F)F)cc3)CC2)cc1` [TJ064985] here?
A: 1 to 10 µg/mL (≈ 1.75 to 17.5 µM)

Q: For `Cc1nn2ccc(C(C)C)cc2c1C(=O)NCc1ccc(N2CCC(c3ccc(OC(F)(F)F)cc3)CC2)cc1` [TJ830073, 5-isopropyl-2-methyl-N-(4-(4-(4-(trifluoromethoxy)phenyl)piperidine-1-yl)benzyl) pyrazolo [1,5-a] pyridine-3-carboxamide], which MIC is on record?
A: 1 to 10 µg/mL (≈ 1.82 to 18.2 µM)

Q: With `Cc1nn2ccc(-c3ccccc3)cc2c1C(=O)NCc1ccc(N2CCC(c3ccc(OC(F)(F)F)cc3)CC2)cc1` [TJ830012, 5-phenyl-2-methyl-N-(4-(4-(4-(trifluoromethoxy)phenyl)piperidine-1-yl)benzyl) pyrazolo [1,5-a] pyridine-3-carboxamide] as the compound, how does the MIC read?
A: > 10 µg/mL

Q: For `Cc1ccn2nc(C)c(C(=O)NCc3ccc(N4CCCCC4)cc3)c2c1` [TJ830146, 2,5-dimethyl-N-(4-(piperidine-1-yl)benzyl) pyrazolo [1,5-a] pyridine-3-carboxamide], which MIC is on record?
A: < 1 µg/mL

Q: With `Cc1ccn2nc(C)c(C(=O)NCc3ccc(N4CCC(C(F)(F)F)CC4)cc3)c2c1` [TJ830149, 2,5-dimethyl-N-(4-(4-(trifluoromethyl)piperidine-1-yl)benzyl) pyrazolo [1,5-a] pyridine-3-carboxamide] as the compound, how does the MIC read?
A: < 1 µg/mL

Q: For `Cc1nn2ccc(Br)cc2c1C(=O)NCc1ccc(N2CCC(c3ccc(OC(F)(F)F)cc3)CC2)cc1` [TJ830008, 5-bromo-2-methyl-N-(4-(4-(4-(trifluoromethoxy)phenyl)piperidine-1-yl)benzyl) pyrazolo [1,5-a] pyridine-3-carboxamide], which MIC is on record?
A: < 1 µg/mL

Q: For `CCc1nn2ccc(Cl)cc2c1C(=O)NCc1ccc(C(=O)OC)cc1` [TJ064814, 4-((5-chloro-2-ethylpyrazolo [1,5-a]pyridine-3-carboxamide)methyl) methyl benzoate], which MIC is on record?
A: 1 to 10 µg/mL (≈ 2.69 to 26.9 µM)

Q: For `Cc1ccn2nc(C)c(C(=O)NCc3ccc(N4CCC(c5ccc(F)cc5)CC4)cc3)c2c1` [TJ830141, N-(4-(4-(4-fluorophenyl)piperidine-1-yl)benzyl)-2,5-dimethyl-pyrazolo [1,5-a] pyridine-3-carboxamide], which MIC is on record?
A: < 1 µg/mL

Q: Which MIC does the source give for `Cc1ccn2nc(C)c(C(=O)NCc3ccc(C(C)(C)C)cc3)c2c1` [TJ830135, N-(4-(tert-butyl)benzyl)-2,5-dimethylpyrazolo [1,5-a] pyridine-3-carboxamide] here?
A: < 1 µg/mL

Q: How did the MIC turn out when `Cc1ccn2nc(C)c(C(=O)NCc3ccc(N(C)C)cc3)c2c1` [TJ830136, N-(4-(dimethylamino)benzyl)-2,5-dimethylpyrazolo [1,5-a] pyridine-3-carboxamide] was run?
A: < 1 µg/mL
